Assay results as given in US8389739B1, “Modulators of retinoid-related orphan receptor gamma” (Orphagen Pharmaceuticals, priority 2006, dated 2013).
Like-named read-outs stand apart in the source and are kept apart here.

Experiments:
Assay in all cases: Crossreactive receptor transcriptional assay (Gal4 hybrid)
Type in all cases: cell-based
[1] = biological target: T1, hPPARγ (Homo sapiens, UniProt P37231)
T1 construct: 175-477; expressed in transfected cells; host or cells: CHO cells, transient transfection
T1 sequence (P37231 175-477 isoform P37231-2): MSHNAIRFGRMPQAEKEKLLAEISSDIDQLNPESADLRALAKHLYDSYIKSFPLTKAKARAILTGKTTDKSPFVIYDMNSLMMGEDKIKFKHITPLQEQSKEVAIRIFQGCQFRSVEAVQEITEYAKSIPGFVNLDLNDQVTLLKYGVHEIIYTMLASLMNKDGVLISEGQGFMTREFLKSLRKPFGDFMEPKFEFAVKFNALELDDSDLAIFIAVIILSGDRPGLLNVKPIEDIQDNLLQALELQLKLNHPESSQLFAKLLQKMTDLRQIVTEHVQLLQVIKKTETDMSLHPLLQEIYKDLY
Experimental: (§1) A firefly luciferase reporter gene for Gal4 DBD hybrid receptors, such as Gal4-RORγ, contains five copies of the Gal4 17-mer response element in its promoter and the coding sequence for firefly luciferase (pG5-luc, Promega). CHO (Chinese Hamster Ovary) cells were cultured in Ham's F12 medium supplemented with 10% fetal calf serum (Gemini Biologicals), 10 μg/ml penicillin and streptomycin, and were maintained in a humidified 37° C. incubator (Thermo Electron, Steri-Cycle) with 5% CO2. 24 hours before transfection, cells were plated in T175 flasks (5×10^6 cells/flask) or T75 flasks (1.7×10^6 cells/flask). Transient transfection of CHO cells was performed using TransIT-CHO reagents (Minis, Madison, Wis.) with a mixing ratio of 2:6:1 between plasmid DNA (in μg), TransIT-CHO (in μl) and CHO-mojo (in μl).
(§2) Plates are maintained at 37° C. in a humidified atmosphere with 7% CO2 overnight. Four (4) hours after cell seeding, compounds dissolved in DMSO at 10 mM were added to cells at final concentrations of 20 micromolar (μM) to 20 nanomolar (nM) in 0.2% DMSO in triplicate plates. Approximately 40 hours later, cytotoxicity in the assay well was characterized by addition of the dye resazurin (O'Brien, Wilson et al. 2000) to a final concentration of 3 μM. […] Percent viability was determined as 2 hour fluorescence, minus background at t=0 hours, normalized to DMSO controls. For detection of luciferase activity, media was removed from plates after the measurement of resazurin conversion, and SteadyLite luciferase reagent (Perkin-Elmer) was added (30 μl/well). Luminescence is detected with a Victor 2-V plate reader (Perkin-Elmer) and normalized to luciferase activity of DMSO control wells alone.

[2] = biological target: T2, hAR (androgen receptor) (Homo sapiens, UniProt P10275)
T2 construct: 646-919; expressed in transfected cells; host or cells: CHO cells, transient transfection
T2 sequence (P10275 647-920): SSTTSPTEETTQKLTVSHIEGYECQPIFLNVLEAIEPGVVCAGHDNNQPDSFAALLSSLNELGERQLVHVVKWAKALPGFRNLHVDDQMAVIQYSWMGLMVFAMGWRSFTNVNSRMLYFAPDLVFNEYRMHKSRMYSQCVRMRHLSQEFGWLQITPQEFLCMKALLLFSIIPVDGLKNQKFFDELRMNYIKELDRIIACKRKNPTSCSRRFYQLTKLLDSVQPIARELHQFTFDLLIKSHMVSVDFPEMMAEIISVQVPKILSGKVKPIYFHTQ
Experimental: as §1, §2

[3] = biological target: T3, mGR (glucocorticoid receptor) (Mus musculus, UniProt P06537)
T3 construct: 524-793; expressed in transfected cells; host or cells: CHO cells, transient transfection
T3 sequence (P06537 524-793 isoform P06537-2): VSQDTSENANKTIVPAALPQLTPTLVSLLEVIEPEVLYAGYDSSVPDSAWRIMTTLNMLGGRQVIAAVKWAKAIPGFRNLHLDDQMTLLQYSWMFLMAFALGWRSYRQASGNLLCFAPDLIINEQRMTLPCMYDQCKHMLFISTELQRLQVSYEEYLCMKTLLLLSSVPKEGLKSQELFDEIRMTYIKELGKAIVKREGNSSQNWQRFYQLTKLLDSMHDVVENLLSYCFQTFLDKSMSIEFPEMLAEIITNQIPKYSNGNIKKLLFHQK
Experimental: as §1, §2

[4] = biological target: T4, hRXRα (retinoid X receptor alpha) (Homo sapiens, UniProt P19793)
T4 construct: 203-462; expressed in transfected cells; host or cells: CHO cells, transient transfection
T4 sequence (P19793 203-462): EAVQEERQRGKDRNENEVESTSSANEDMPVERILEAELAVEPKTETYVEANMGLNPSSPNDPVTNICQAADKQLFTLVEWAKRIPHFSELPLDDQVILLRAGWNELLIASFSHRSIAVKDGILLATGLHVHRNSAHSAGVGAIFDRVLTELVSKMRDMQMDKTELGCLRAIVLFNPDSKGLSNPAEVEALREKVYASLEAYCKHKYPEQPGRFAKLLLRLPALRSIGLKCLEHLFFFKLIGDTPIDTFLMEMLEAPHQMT
Experimental: as §1, §2

[5] = biological target: T5, hPR (progesterone receptor) (Homo sapiens, UniProt P06401)
T5 construct: 687-933; expressed in transfected cells; host or cells: CHO cells, transient transfection
T5 sequence (P06401 687-933): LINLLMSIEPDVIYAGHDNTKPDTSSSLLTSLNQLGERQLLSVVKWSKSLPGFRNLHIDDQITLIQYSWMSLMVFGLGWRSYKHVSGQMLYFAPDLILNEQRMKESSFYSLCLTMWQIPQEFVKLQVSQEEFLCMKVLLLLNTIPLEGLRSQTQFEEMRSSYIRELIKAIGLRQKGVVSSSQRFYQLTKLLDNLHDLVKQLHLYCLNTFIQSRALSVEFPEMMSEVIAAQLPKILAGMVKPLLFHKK
Experimental: as §1, §2

[6] = biological target: T6, hFXR (farnesoid X receptor) (Homo sapiens, UniProt Q96RI1)
T6 construct: 192-473; expressed in transfected cells; host or cells: CHO cells, transient transfection
T6 sequence (Q96RI1 192-472 isoform Q96RI1-2): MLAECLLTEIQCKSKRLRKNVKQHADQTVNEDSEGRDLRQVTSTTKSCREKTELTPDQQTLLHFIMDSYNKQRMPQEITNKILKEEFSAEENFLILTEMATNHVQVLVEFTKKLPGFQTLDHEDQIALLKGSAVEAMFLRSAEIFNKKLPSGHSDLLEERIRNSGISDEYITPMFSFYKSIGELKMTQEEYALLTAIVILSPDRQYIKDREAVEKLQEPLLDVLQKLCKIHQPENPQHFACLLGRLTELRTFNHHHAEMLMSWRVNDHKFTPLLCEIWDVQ
Experimental: as §1, §2

[7] = Table 6, read-out: Potency (EC50) at hPPARγ
[8] = Table 6, read-out: Potency (EC50) at hAR
[9] = Table 6, read-out: Potency (EC50) at mGR
[10] = Table 6, read-out: Potency (EC50) at hRXRα
[11] = Table 6, read-out: Potency (EC50) at hPR
[12] = Table 6, read-out: Potency (EC50) at hFXR

Measured: EC50

O=S(=O)(c1ccccc1)N(CC(F)(F)F)c1ccc(C(O)(C(F)(F)F)C(F)(F)F)cc1 [Compound T0901317, N-(2,2,2-Trifluoro-ethyl)-N-[4-(2,2,2-trifluoro-1-hydroxy-1-trifluoromethyl-ethyl)-phenyl]-benzenesulfonamide, reference compound]
> 10 µM: [1]; [7] | [2]; [8] | [3]; [9] | [4]; [10] | [5]; [11]

CCn1c(CNc2ccc(Cl)cc2)nnc1SCC(=O)Nc1cccc2ccccc12 [OR-133008, 2-{5-[(4-Chloro-phenylamino)-methyl]-4-ethyl-4H-[1,2,4]triazol-3-ylsulfanyl}-N-naphthalen-1-yl-acetamide]
> 10 µM: [1]; [7] | [2]; [8] | [3]; [9] | [4]; [10] | [5]; [11] | [6]; [12]

CCN(c1ccc(C(O)(C(F)(F)F)C(F)(F)F)cc1)S(=O)(=O)c1ccc([N+](=O)[O-])cc1 [OR-1050, N-Ethyl-4-nitro-N-[4-(2,2,2-trifluoro-1-hydroxy-1-trifluoromethyl-ethyl)-phenyl]-benzenesulfonamide]
> 10 µM: [1]; [7] | [2]; [8] | [3]; [9] | [4]; [10] | [5]; [11] | [6]; [12]

COC(C)CCC(C)C1CCC2C3CC(O)C4CC(O)CCC4(C)C3CCC12C (centres unmarked) [OR-12872, 17-(4-Methoxy-1-methyl-pentyl)-10,13-dimethyl-hexadecahydro-cyclopenta[a]phenanthrene-3,6-diol]
> 10 µM: [1]; [7] | [2]; [8] | [3]; [9] | [4]; [10] | [5]; [11] | [6]; [12]

COc1c(C=NNc2nc(N3CCCCC3)nc(N3CCCCC3)n2)cccc1[N+](=O)[O-] [OR-2161, N-(4,6-Di-piperidin-1-yl-[1,3,5]triazin-2-yl)-N′-(2-methoxy-3-nitro-benzylidene)-hydrazine]
> 10 µM: [1]; [7] | [2]; [8] | [3]; [9] | [4]; [10] | [5]; [11] | [6]; [12]

CC(=O)O[C@H]1CC[C@@]2(C)C(CC[C@]3(C)C2C(=O)C=C2C4[C@@H](C)[C@H](C)CC[C@]4(C(=O)O)CC[C@]23C)C1(C)C (stereo in doubt) [OR-13571, 10-Acetoxy-1,2,6a,6b,9,9,12a-heptamethyl-13-oxo-1,3,4,5,6,6a,6b,7,8,8a,9,10,11,12,12a,12b,13,14b-octadecahydro-2H-picene-4a-carboxylic acid]
> 10 µM: [1]; [7] | [2]; [8] | [3]; [9] | [4]; [10] | [5]; [11] | [6]; [12]

C[C@@H]1CC[C@@]2(OC1)O[C@H]1C[C@H]3[C@@H]4CC[C@H]5C[C@@H](O)CC[C@]5(C)[C@H]4C[C@@H](O)[C@]3(C)[C@H]1[C@@H]2C [OR-885, 5α,20α, 22α, 25D-SPIROSTAN-3β, 12β-DIOL]
> 10 µM: [1] | [2] | [3] | [4] | [5] | [6]
